# Measurements taken from ChEMBL document CHEMBL4342450, “Antitumor Activity of Ohmyungsamycin A through the Regulation of the Skp2-p27 Axis and MCM4 in Human Colorectal Cancer Cells” (J Nat Prod, 2020).
# Activity calls are given as the source filed them. The rule behind the calls is not given here. *1 amine or outer side, *2 acyl side, *3 side chain or, on linkers, in order; H or OH if unused. Where a SMILES comes first, the peptide text is derived from it. Bridges are numbered along the chain shown (N, C = ends). [ ]: non-standard residue; d: D form. Phe(3R-OH) = O=C([C@@H](N[*:1])[C@H](O[*:3])c1ccccc1)[*:2]; NMeTrp(4-OMe) = CN[C@@H](Cc1c[nH]c2cccc(OC)c12)C(=O)O; NMeT = CN[C@H](C(=O)O)[C@@H](C)O; NMeL = CN[C@@H](CC(C)C)C(=O)O; NMeV = CN[C@H](C(=O)O)C(C)C
# What was measured:
# [1] = system: HCT-116; test: Induction of cell cycle arrest in human HCT116 cells assessed as accumulation at S phase at 10 uM incubated for 24 hrs by propidium iodide staining based flow cytometry (reference value: 21.2%); type: functional
# [2] = system: Mus musculus; test: In vivo modulation of MCM4 in tumor of BALB/c nude mouse xenografted with human HCT116 cells assessed as downregulation of MCM4 level at 5 to 10 m/kg, ip administered thrice a week for 3.5 weeks by Western blot analysis; type: functional, organism-based
# [3] = system: HCT-116; test: Induction of cell cycle arrest in human HCT116 cells assessed as accumulation at sub-G1 phase at 20 uM incubated for 24 hrs by propidium iodide staining based flow cytometry (reference value: 4.8%); type: functional
# [4] = system: HCT-116; test: Downregulation of INSIG1 gene expression in human HCT116 cells assessed as fold change at 15 uM incubated for 24 hrs by cDNA microarray analysis relative to control; type: functional
# [5] = system: HCT-116; test: Induction of cell cycle arrest in human HCT116 cells assessed as accumulation at S phase at 20 uM incubated for 18 hrs by propidium iodide staining based flow cytometry (reference value: 26.8%); type: functional
# [6] = system: HCT-116; test: Effect on Skp1 expression in human HCT116 cells at 5 to 20 uM after 24 hrs by Western blot analysis; type: functional, cell-based
# [7] = system: HCT-116; test: Induction of apoptosis in human HCT116 cells assessed as increase in cleaved PARP level at 20 uM after 24 hrs by Western blot analysis; type: functional, cell-based
# [8] = system: HCT-116; test: Antitumor activity against human HCT116 cells xenografted in BALB/c nude mouse assessed as tumor weight at 10 mg/kg, ip administered thrice a week for 3.5 weeks measured on last day (reference value: 100%); type: functional
# [9] = system: MDA-MB-231; test: Antiproliferative activity against human MDA-MB-231 cells after 72 hrs by sulforhodamine B assay; type: functional, cell-based; details: MDA-MB-231, 72 h
# [10] = system: HCT-116; test: Decrease in cell cycle associated protein expression in human HCT116 cells assessed as reduction in cyclin E expression at 5 to 20 uM after 24 hrs by Western blot analysis; type: functional, cell-based
# [11] = system: HCT-116; test: Induction of cell cycle arrest in human HCT116 cells assessed as accumulation at S phase at 5 uM incubated for 24 hrs by propidium iodide staining based flow cytometry (reference value: 21.2%); type: functional
# [12] = system: HCT-116; test: Downregulation of SKP2 gene expression in human HCT116 cells assessed as fold change at 15 uM incubated for 24 hrs by cDNA microarray analysis relative to control; type: functional
# [13] = system: SNU-638; test: Antiproliferative activity against human SNU638 cells after 72 hrs by sulforhodamine B assay; type: functional, cell-based; details: SNU-638, 72 h
smiles,measurement,setting,value
CN[C@H](C(=O)N[C@H](C(=O)N[C@@H]1C(=O)N(C)[C@@H]([C@@H](C)O)C(=O)N[C@@H](C(C)C)C(=O)N(C)[C@@H](CC(C)C)C(=O)N[C@@H](C(C)C)C(=O)N(C)[C@@H](C(C)C)C(=O)N(C)[C@@H](Cc2c[nH]c3cccc(OC)c23)C(=O)N[C@@H](C(C)C)C(=O)N[C@@H]([C@H](O)c2ccccc2)C(=O)N[C@@H](C(C)C)C(=O)O[C@@H]1C)C(C)C)C(C)C (H-[NMeV]VT[NMeT]V[NMeL]V[NMeV][NMeTrp(4-OMe)]V[Phe(3R-OH)]V; ester 3-C),Activity,[1],4.4%
same,inhibition,[2],Active
same,Activity,[3],31.4%
same,fold change (FC),[4],4.476
same,Activity,[5],16%
same,Activity,[6],inactive
same,Activity,[7],Active
same,Activity,[8],47.9%
same,IC50,[9],9.89 µM
same,inhibition,[10],Active
same,Activity,[11],5.6%
same,fold change (FC),[12],4.898
same,IC50,[13],9.38 µM
